Experimental findings from publication PMC5118696, “Identification of inhibitors that dually target the new permeability pathway and dihydroorotate dehydrogenase in the blood stage of Plasmodium falciparum” (Scientific Reports, 2016) are described below.

Like-named read-outs stand apart in the source and are kept apart here.

Experiment [1] deals with Hyp1-NLuc Plasmodium falciparum-infected erythrocytes (new permeability pathway, NPP). Kind of experiment: microbe, parasite or virus in culture. Particulars: Erythrocyte, 0.33 h, read-out: % of control remaining.
The test system is the same in experiment [2]. Kind of experiment: microbe, parasite or virus in culture. The conditions noted are these: Erythrocyte, 0.33 h, read-out: Mean RLU at 28 min (As % of DMSO control).

In the case of `O=C(Nc1cccc(C2=NCCN2)c1)Nc1cccc(C2=NCCN2)c1` [MMV665810], the activity at 2 µM amounted to 84.4% in experiment [1] and 85.8% in experiment [2].

Consider `O=C(Nc1ccc(-c2nc3cc4ccccc4cc3[nH]2)cc1)c1cccc(Br)c1` [MMV019241], for which the activity at 2 µM was found to be 113% in experiment [1] and 103% in experiment [2].

As to `CC(O)(c1ccc(Cl)cc1)C(CN1CCCCC1)c1ccccc1` (stereo not drawn) [MMV000620], the activity at 2 µM was found to be 114% in experiment [1] and 100% in experiment [2].

Turning to `CCN(CC)CCNc1ncnc2c1[nH]c1ccc(Br)cc12` [MMV006545], the activity at 2 µM in experiment [1] came to 110%; in experiment [2], 120%.

With `Cc1cc(NC(=O)C2c3ccccc3C(=O)N(CC(C)C)C2c2cccs2)no1` (stereo not drawn) [MMV006429], the activity at 2 µM came out at 98.1% in experiment [1] and 99.6% in experiment [2].

With `Oc1ccc(-c2nc(-c3ccc4oc5ccc(-c6[nH]c(-c7ccc(O)cc7)nc6-c6ccccc6)cc5c4c3)c(-c3ccccc3)[nH]2)cc1` [MMV000753], the activity at 2 µM in experiment [1] came out at 89.5%; in experiment [2], 88.1%.

Regarding `CCOC(=O)C1=C(C)N=c2sc(=Cc3cc(Cl)ccc3O)c(=O)n2C1c1ccc(OC)cc1` (stereo not drawn) [MMV665971], the results for the activity at 2 µM in experiment [1] and in experiment [2] were 102% and 101%, respectively.

As to `O=C(NC(c1ccccc1)c1ccc2cccnc2c1O)c1ccccc1` (stereo not drawn) [MMV666080], the values for the activity at 2 µM in experiment [1] and in experiment [2] were 114% and 104%, respectively.

As for `COc1ccc2nc(N)nc(C)c2c1` [MMV665897], the results for the activity at 2 µM in experiment [1] and in experiment [2] were 93.5% and 103%, respectively.

On to `CCN(CC)CCCNc1nc(-c2ccc(Cl)cc2)nc2ccccc12` [MMV665961], for which the activity at 2 µM in experiment [1] turned out to be 101%; in experiment [2] it was 103%.

In the case of `O=C(NCCCN1CCC(N2CCCCC2)CC1)C1=Cc2cc(Br)ccc2OC1` [MMV019995], the activity at 2 µM in experiment [1] and in experiment [2] was 106% in each case.

As for `COc1cc(SC)ccc1C(=O)N1CCCC(C)C1` (stereo not drawn) [MMV056726], the activity at 2 µM in experiment [1] turned out to be 123%; in experiment [2] it was 122%.

In the case of `Oc1ccccc1CN1CCN(C(c2ccccc2)c2ccccc2)CC1` [MMV011795], the activity at 2 µM in experiment [1] amounted to 113%; in experiment [2] it was 115%.

Consider `COc1ccc(C2C(C(=O)Nc3cccc(OC)c3)c3ccccc3C(=O)N2C2CCCCC2)cc1` (stereo not drawn) [MMV008455], for which the activity at 2 µM in experiment [1] was determined as 115%; in experiment [2], 107%.

With `CCOC(=O)c1c(NC(=O)c2ccccc2)sc2c(O)c(CN(CC)CC)ccc12` [MMV665831], the activity at 2 µM in experiment [1] and in experiment [2] was 103% each time.

As for `CC(C)(C)CC(C)(C)NCC(O)COc1ccc(Cl)cc1Cl` (stereo not drawn) [MMV396794], the results for the activity at 2 µM in experiment [1] and in experiment [2] were 109% and 111%, respectively.

Consider `CCOc1cc2c(cc1OCC)C(c1cc(Cl)c(O)c(OCC)c1)NCC2` (stereo not drawn) [MMV000481], for which the activity at 2 µM in experiment [1] stood at 114%; in experiment [2], 112%.

`c1ccc(C2=Nc3ccccc3N=C(c3ccccc3)c3ccccc32)cc1` [MMV007113]: the values for the activity at 2 µM in experiment [1] and in experiment [2] were 111% and 103%, respectively.

For the compound `O=C(Nc1nc(-c2ccccn2)cs1)c1ccccc1Br` [MMV665909], the activity at 2 µM is 103% in experiment [1] and 95.5% in experiment [2].

Regarding `CCCCC(O)(c1ccc(Cl)cc1)C(CN1CCOCC1)c1ccc(Cl)cc1` (stereo not drawn) [MMV000619], the activity at 2 µM in experiment [1] stood at 114%; in experiment [2] it was 108%.

As to `Oc1ccccc1CN1CCC2(CCCN(Cc3ccccc3F)C2)C1` (stereo not drawn) [MMV666116], the activity at 2 µM in experiment [1] is 106%; in experiment [2] it was 100%.

Regarding `CCc1ccc(Nc2cc(C)c3ccc(O)cc3n2)cc1` [MMV000570], the activity at 2 µM in experiment [1] was 107%; in experiment [2], 106%.

`O=C(Nc1ccccc1O)c1ccc(Oc2cccc(C(=O)Nc3ccccc3O)c2)cc1` [MMV665888]: the activity at 2 µM is 104% in experiment [1] and 102% in experiment [2].

Take `CCC(=O)Nc1nnc(Cc2ccc(OC)c(OC)c2)s1` [MMV020942]: the activity at 2 µM in experiment [1] and in experiment [2] was 102% each time.
